Biological target: T1, MsFadD32 (full-length FadD32 from M. smegmatis) (Mycolicibacterium smegmatis, UniProt A0R618)
T1 construct: full-length (N-terminal domain 1-483, C-terminal domain 484-630), expressed in E. coli BL21(DE3) as SUMO (SMT3) fusion; crystal of the SUMO fusion
T1 sequence (A0R618 1-630): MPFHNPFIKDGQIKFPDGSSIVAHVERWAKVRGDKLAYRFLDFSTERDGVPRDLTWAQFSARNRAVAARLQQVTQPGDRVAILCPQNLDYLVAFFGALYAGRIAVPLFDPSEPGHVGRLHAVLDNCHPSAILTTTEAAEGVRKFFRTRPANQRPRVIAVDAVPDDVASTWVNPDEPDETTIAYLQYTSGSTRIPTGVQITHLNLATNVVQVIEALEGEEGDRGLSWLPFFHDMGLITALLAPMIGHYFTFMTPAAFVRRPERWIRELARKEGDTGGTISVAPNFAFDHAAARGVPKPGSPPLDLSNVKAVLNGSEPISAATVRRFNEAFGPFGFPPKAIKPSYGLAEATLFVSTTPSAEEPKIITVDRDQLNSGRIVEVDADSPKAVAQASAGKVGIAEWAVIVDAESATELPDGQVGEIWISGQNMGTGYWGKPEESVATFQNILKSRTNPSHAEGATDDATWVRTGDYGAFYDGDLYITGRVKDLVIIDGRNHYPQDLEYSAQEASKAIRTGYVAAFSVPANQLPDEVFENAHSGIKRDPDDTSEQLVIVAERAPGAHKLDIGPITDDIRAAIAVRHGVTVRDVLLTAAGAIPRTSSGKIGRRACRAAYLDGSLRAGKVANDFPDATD
Assay: isothermal titration calorimetry; crystal structure of the complex at […] Å
Format: binding

Q: How did the Kd turn out when `Nc1ncnc2c1ncn2[C@@H]1O[C@H](COP(=O)(O)OP(=O)(O)OP(=O)(O)O)[C@@H](O)[C@H]1O` [ATP] was run?
A: Its Kd is about 36 µM.
